PubChem BioAssay (NCI)
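Cells were grown in 96-well plates and exposed to each compound for 48 hours at five concentrations; endpoints were interpolated linearly between bracketing concentrations, or set to the highest concentration if not reached. At the GI50, growth is halved. TGI denotes the concentration required for complete inhibition of growth.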

Key:
Assay in all cases: inhibition of tumour cell growth, NCI panel, 48 h
786-0 renal = test system: 786-0 renal
A498 renal = test system: A498 renal
A549 NSCLC = test system: A549 NSCLC
ACHN renal = test system: ACHN renal
BT-549 breast = test system: BT-549 breast
CAKI-1 renal = test system: CAKI-1 renal
CCRF-CEM leukemia = test system: CCRF-CEM leukemia
COLO 205 colon = test system: COLO 205 colon
DU-145 prostate = test system: DU-145 prostate
EKVX NSCLC = test system: EKVX NSCLC
HCT-116 colon = test system: HCT-116 colon
HCT-15 colon = test system: HCT-15 colon
HL-60(TB) leukemia = test system: HL-60(TB) leukemia
HOP-62 NSCLC = test system: HOP-62 NSCLC
HOP-92 NSCLC = test system: HOP-92 NSCLC
HS 578T breast = test system: HS 578T breast
HT29 colon = test system: HT29 colon
IGROV1 ovarian = test system: IGROV1 ovarian
K-562 leukemia = test system: K-562 leukemia
KM12 colon = test system: KM12 colon
LOX IMVI melanoma = test system: LOX IMVI melanoma
M14 melanoma = test system: M14 melanoma
MALME-3M melanoma = test system: MALME-3M melanoma
MCF7 breast = test system: MCF7 breast
MDA-MB-231 breast = test system: MDA-MB-231 breast
MDA-MB-435 = test system: MDA-MB-435
MOLT-4 leukemia = test system: MOLT-4 leukemia
NCI-H226 lung = test system: NCI-H226 lung
NCI-H23 lung = test system: NCI-H23 lung
NCI-H460 lung = test system: NCI-H460 lung
NCI-H522 lung = test system: NCI-H522 lung
NCI/ADR-RES ovarian = test system: NCI/ADR-RES ovarian
OVCAR-3 ovarian = test system: OVCAR-3 ovarian
OVCAR-4 ovarian = test system: OVCAR-4 ovarian
OVCAR-5 ovarian = test system: OVCAR-5 ovarian
OVCAR-8 ovarian = test system: OVCAR-8 ovarian
PC-3 prostate = test system: PC-3 prostate
RPMI-8226 leukemia = test system: RPMI-8226 leukemia
SF-268 CNS = test system: SF-268 CNS
SF-295 CNS = test system: SF-295 CNS
SF-539 CNS = test system: SF-539 CNS
SK-MEL-2 melanoma = test system: SK-MEL-2 melanoma
SK-MEL-28 melanoma = test system: SK-MEL-28 melanoma
SK-MEL-5 melanoma = test system: SK-MEL-5 melanoma
SK-OV-3 ovarian = test system: SK-OV-3 ovarian
SN12C renal = test system: SN12C renal
SNB-19 CNS = test system: SNB-19 CNS
SNB-75 CNS = test system: SNB-75 CNS
SR leukemia = test system: SR leukemia
SW-620 colon = test system: SW-620 colon
T-47D breast = test system: T-47D breast
TK-10 renal = test system: TK-10 renal
U251 CNS = test system: U251 CNS
UACC-257 melanoma = test system: UACC-257 melanoma
UACC-62 melanoma = test system: UACC-62 melanoma
UO-31 renal = test system: UO-31 renal

Structure (SMILES): COc1cc2c3c(n(CCCCOC(=O)C(Cl)(Cl)Cl)c(=O)c2cc1OC)-c1cc2c(cc1C3=O)OCO2
- GI50 (786-0 renal): 17.2 µM
- TGI (786-0 renal): 41.3 µM
- GI50 (A498 renal): > 100 µM
- TGI (A498 renal): > 100 µM
- GI50 (A549 NSCLC): > 100 µM
- TGI (A549 NSCLC): > 100 µM
- GI50 (ACHN renal): 14.2 µM
- TGI (ACHN renal): 59.5 µM
- GI50 (BT-549 breast): 57.1 µM
- TGI (BT-549 breast): > 100 µM
- GI50 (CAKI-1 renal): 4.61 µM
- TGI (CAKI-1 renal): > 100 µM
- GI50 (CCRF-CEM leukemia): 10.5 µM
- TGI (CCRF-CEM leukemia): > 100 µM
- GI50 (COLO 205 colon): > 100 µM
- TGI (COLO 205 colon): > 100 µM
- GI50 (DU-145 prostate): 20.4 µM
- TGI (DU-145 prostate): > 100 µM
- GI50 (EKVX NSCLC): > 100 µM
- TGI (EKVX NSCLC): > 100 µM
- GI50 (HCT-116 colon): 17 µM
- TGI (HCT-116 colon): 34.2 µM
- GI50 (HCT-15 colon): > 100 µM
- TGI (HCT-15 colon): > 100 µM
- GI50 (HL-60(TB) leukemia): > 100 µM
- TGI (HL-60(TB) leukemia): > 100 µM
- GI50 (HOP-62 NSCLC): 29.3 µM
- TGI (HOP-62 NSCLC): > 100 µM
- GI50 (HOP-92 NSCLC): > 100 µM
- TGI (HOP-92 NSCLC): > 100 µM
- GI50 (HS 578T breast): 94.7 µM
- TGI (HS 578T breast): > 100 µM
- GI50 (HT29 colon): > 100 µM
- TGI (HT29 colon): > 100 µM
- GI50 (IGROV1 ovarian): 14.4 µM
- TGI (IGROV1 ovarian): > 100 µM
- GI50 (K-562 leukemia): > 100 µM
- TGI (K-562 leukemia): > 100 µM
- GI50 (KM12 colon): > 100 µM
- TGI (KM12 colon): > 100 µM
- GI50 (LOX IMVI melanoma): 35.9 µM
- TGI (LOX IMVI melanoma): > 100 µM
- GI50 (M14 melanoma): 24.3 µM
- TGI (M14 melanoma): 71.9 µM
- GI50 (MALME-3M melanoma): > 100 µM
- TGI (MALME-3M melanoma): > 100 µM
- GI50 (MCF7 breast): 11.5 µM
- TGI (MCF7 breast): > 100 µM
- GI50 (MDA-MB-231 breast): 50.3 µM
- TGI (MDA-MB-231 breast): > 100 µM
- GI50 (MDA-MB-435): > 100 µM
- TGI (MDA-MB-435): > 100 µM
- GI50 (MOLT-4 leukemia): 5.67 µM
- TGI (MOLT-4 leukemia): > 100 µM
- GI50 (NCI-H226 lung): 67.6 µM
- TGI (NCI-H226 lung): > 100 µM
- GI50 (NCI-H23 lung): 92 µM
- TGI (NCI-H23 lung): > 100 µM
- GI50 (NCI-H460 lung): 2.41 µM
- TGI (NCI-H460 lung): > 100 µM
- GI50 (NCI-H522 lung): 0.692 µM
- TGI (NCI-H522 lung): 76.3 µM
- GI50 (NCI/ADR-RES ovarian): 82.7 µM
- TGI (NCI/ADR-RES ovarian): > 100 µM
- GI50 (OVCAR-3 ovarian): > 100 µM
- TGI (OVCAR-3 ovarian): > 100 µM
- GI50 (OVCAR-4 ovarian): > 100 µM
- TGI (OVCAR-4 ovarian): > 100 µM
- GI50 (OVCAR-5 ovarian): > 100 µM
- TGI (OVCAR-5 ovarian): > 100 µM
- GI50 (OVCAR-8 ovarian): 27.9 µM
- TGI (OVCAR-8 ovarian): > 100 µM
- GI50 (PC-3 prostate): > 100 µM
- TGI (PC-3 prostate): > 100 µM
- GI50 (RPMI-8226 leukemia): > 100 µM
- TGI (RPMI-8226 leukemia): > 100 µM
- GI50 (SF-268 CNS): 30 µM
- TGI (SF-268 CNS): > 100 µM
- GI50 (SF-295 CNS): 8.71 µM
- TGI (SF-295 CNS): > 100 µM
- GI50 (SF-539 CNS): 60.1 µM
- TGI (SF-539 CNS): > 100 µM
- GI50 (SK-MEL-2 melanoma): > 100 µM
- TGI (SK-MEL-2 melanoma): > 100 µM
- GI50 (SK-MEL-28 melanoma): > 100 µM
- TGI (SK-MEL-28 melanoma): > 100 µM
- GI50 (SK-MEL-5 melanoma): > 100 µM
- TGI (SK-MEL-5 melanoma): > 100 µM
- GI50 (SK-OV-3 ovarian): > 100 µM
- TGI (SK-OV-3 ovarian): > 100 µM
- GI50 (SN12C renal): 43.7 µM
- TGI (SN12C renal): > 100 µM
- GI50 (SNB-19 CNS): > 100 µM
- TGI (SNB-19 CNS): > 100 µM
- GI50 (SNB-75 CNS): > 100 µM
- TGI (SNB-75 CNS): > 100 µM
- GI50 (SR leukemia): 1.14 µM
- TGI (SR leukemia): 15 µM
- GI50 (SW-620 colon): 85.5 µM
- TGI (SW-620 colon): > 100 µM
- GI50 (T-47D breast): > 100 µM
- TGI (T-47D breast): > 100 µM
- GI50 (TK-10 renal): > 100 µM
- TGI (TK-10 renal): > 100 µM
- GI50 (U251 CNS): 21.5 µM
- TGI (U251 CNS): > 100 µM
- GI50 (UACC-257 melanoma): > 100 µM
- TGI (UACC-257 melanoma): > 100 µM
- GI50 (UACC-62 melanoma): 22.5 µM
- TGI (UACC-62 melanoma): > 100 µM
- GI50 (UO-31 renal): 14.1 µM
- TGI (UO-31 renal): > 100 µM
